According to patent US9428553B2, “Meditopes and meditope-binding antibodies and uses thereof” (City of Hope, priority 2012, dated 2016):
Entries after “also recorded” stand apart in the source; their conditions may differ. Where a SMILES comes first, the peptide text is derived from it. Bridges are numbered along the chain shown (N, C = ends). Where no end group is shown, it is not given here.

Legend:
MDA MB-468 cells = test: FACS, cetuximab binding to EGFR-expressing cells in the presence of meditope; type: cell-based; details: meditope concentrations greater than 60 μM
Description: Labeled MOPS-21 was used as an isotype control. Cell fluorescence was determined using a FACS Calibur instrument (BD Biosciences).

MDA-MB-468 cells [1] = test: MTT assay; type: cell-based; details: for cell growth: 48-hour incubation, 0.1 μM cetuximab, 0.01, 0.1 and 1 μM meditope or meditope-Fc
Description: 4000 MDA-MB-468 cells were placed in each well of a 96 well plate in 80 μl of medium.
The assay compared the enhancement of cetuximab-mediated inhibition of antigen-expressing tumor cell growth by meditope-Fc and by M425 (a mouse anti-EGFR antibody). 4000 MDA-MB-468 cells were placed in each well of a 96 well plate in 80 μl of medium. […] After a 48-hour incubation period, 10 μl MTT reagent was added and the mixture allowed to incubate for an additional 4 hours. The culture supernatant was removed, 100 μl of MTT crystal dissolving reagent added, and the plate read at 630 nm.

cetuximab [2] = test: SPR binding affinity as a function of buffer pH; details: pH=4.0 to pH=8.0
Text: FIG. 27 is a graph showing surface plasmon resonance (SPR) studies.

sEGFRdIII = biological target: T1, sEGFRdIII (Homo sapiens, UniProt P00533); test: FRET titration of labeled cetuximab Fab with labeled sEGFRdIII; type: binding; details: in the presence of the cQFD meditope (66 μM)
T1 construct: soluble epidermal growth factor receptor domain III (sEGFRdIII) were expressed in Sf9 cells; made in house; host or cells: Sf9 cells
T1 sequence (P00533 335-538 limits assumed): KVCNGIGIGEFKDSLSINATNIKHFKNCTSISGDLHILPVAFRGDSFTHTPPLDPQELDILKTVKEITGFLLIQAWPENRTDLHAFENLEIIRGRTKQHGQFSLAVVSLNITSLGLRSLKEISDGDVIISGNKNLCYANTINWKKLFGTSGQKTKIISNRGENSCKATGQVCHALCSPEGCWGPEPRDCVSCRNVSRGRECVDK

cetuximab [3] = test: SPR (Biacore T100), variant meditopes over immobilized cetuximab IgG or cetuximab Fab; type: binding; details: in words
Description: The final volume after dialysis was carefully measured and absorbance measurements were taken to estimate the concentration (typically 1-10 mM). These stock solutions were used to make dilutions into HBS-EP buffer (10 mM Hepes pH 7.4, 150 mM NaCl, 3 mM EDTA and 0.05% v/v surfactant P20) for SPR measurements. […] Ligands were immobilized at low levels suitable for kinetic data. Typical kinetics SPR experiments were carried out at a flow rate of 30 μL/min using HBS-EP as both running and regeneration buffer. Kinetic parameters were calculated using the Biacore T100 evaluation software version 2.0.1.
Each chip was first characterized using a soluble fragment of the entire extracellular domain of EGFR (residues 1-621).

[4] = tested on: meditope-enabled M5A (M5A 8M); test: SPR, meditope variants with meditope-enabled M5A; type: binding; details: FIG. 58
cetuximab Fab = test: SPR, meditopes over cetuximab Fab immobilized on CM5 chip; type: binding; details: relative to WT cQFD
Description: Affinity analysis by SPR was performed as previously described (Donaldson et al., 2009; Li et al., 2005, supra). […] SEC was performed using a Superdex 200 10/300 column (GE Healthcare). The proteins were mixed, incubated at room temperature for 20 min and applied to the column at 4° C.
The binding kinetics were also measured (FIG. 3).
The point mutation and wild type cQFD meditopes were generated as C-terminal fusions to SMT3 and cleaved with Ulp1 before the analysis.

[5] = tested on: meditope-enabled trastuzumab (TM); test: SPR, MPL linker variants flowed over immobilized TM; details: 1:1 langmuir binding model
Description: Protein was purified by affinity and size exclusion chromatography. […] Kinetic information was calculated using Biaevaluation software using a 1:1 langmuir binding model.

SKBR3 cells = test: FACS, antibody and meditope binding to HER2 over-expressing cells; type: cell-based
Text: Unbound antibody was washed twice and analyzed by flow cytometry.

MDA-MB-468 cells [6] = test: FACS, meditope binding to cetuximab pre-treated EGFR-expressing cells; type: cell-based
Description: In another study, the meditope-Fc fusion protein was labeled with Alexa488 as described above. […] Unbound antibody was washed and the cells were incubated with the meditope-Fc (600 nM, 180 nM, or 60 nM) for 30 minutes.

CC(C)C[C@@H]1NC(=O)[C@H](CCCNC(=N)N)NC(=O)[C@H](CCCNC(=N)N)NC(=O)[C@H]([C@@H](C)O)NC(=O)[C@H](CO)NC(=O)[C@H](CC(C)C)NC(=O)[C@H](CC(=O)O)NC(=O)[C@H](Cc2ccccc2)NC(=O)[C@H](CCC(N)=O)NC(=O)[C@@H](N)CSSC[C@@H](C(=O)O)NC(=O)[C@H](CCCCN)NC1=O [Meditope 1]
changes in cetuximab binding to the cells (MDA MB-468 cells): no significant changes
cell growth (MDA-MB-468 cells [1]): Neither addition of monovalent meditope (alone or with cetuximab), or meditope-Fc alone altered cell growth significantly
pH dependence of affinity (cetuximab [2]): slightly greater at higher pHs
change in the binding constant of the Fab-sEGFRdIII interaction (sEGFRdIII): no substantial change

CC(C)C[C@@H]1NC(=O)[C@H](C)NC(=O)[C@H](CCCNC(=N)N)NC(=O)[C@H](CO)NC(=O)[C@H](CO)NC(=O)[C@H](CC(C)C)NC(=O)[C@H](CC(N)=O)NC(=O)[C@H](Cc2ccc(O)cc2)NC(=O)[C@H](CCC(N)=O)NC(=O)[C@@H](N)CSSC[C@@H](C(=O)O)NC(=O)[C@H](CCCCN)NC1=O [Meditope 2]
affinity compared to cQFD (cetuximab [3]): reduced
binding to meditope-enabled antibody [4]: confirming binding
pH dependence of affinity (cetuximab [2]): flat pH dependence

CC(C)C[C@@H]1NC(=O)[C@H](CCCNC(=N)N)NC(=O)[C@H](CCCNC(=N)N)NC(=O)[C@H]([C@@H](C)O)NC(=O)[C@H](CO)NC(=O)[C@H](CC(C)C)NC(=O)[C@H](CC(=O)O)NC(=O)[C@H](C(c2ccccc2)c2ccccc2)NC(=O)[C@H](CCC(N)=O)NC(=O)[C@@H](N)CSSC[C@@H](C(=O)O)NC(=O)[C@H](CCCCN)NC1=O [Meditope 17, C-QXDLSTRRLK-C]
binding to meditope-enabled antibody [4]: confirming binding

CC(C)C[C@@H]1NC(=O)[C@H](CCCNC(=N)N)NC(=O)[C@H](CCCNC(=N)N)NC(=O)[C@H]([C@@H](C)O)NC(=O)[C@H](CO)NC(=O)[C@H](C(c2ccccc2)c2ccccc2)NC(=O)[C@H](CC(=O)O)NC(=O)[C@H](Cc2ccccc2)NC(=O)[C@H](CCC(N)=O)NC(=O)[C@@H](N)CSSC[C@@H](C(=O)O)NC(=O)[C@H](CCCCN)NC1=O [Meditope 18, C-QFDXSTRRLK-C]
binding to meditope-enabled antibody [4]: confirming binding

CC(C)C[C@@H]1NC(=O)[C@H](CC(=O)O)NC(=O)[C@H](Cc2ccccc2)NC(=O)[C@H](CCC(N)=O)NC(=O)[C@@H](N)CSSC[C@@H](C(=O)O)NC(=O)[C@H](CCCCN)NC(=O)[C@H](C)NC(=O)[C@H](CCCNC(=N)N)NC(=O)[C@H](CCCNC(=N)N)NC(=O)[C@H]([C@@H](C)O)NC(=O)[C@H](CO)NC1=O [Meditope 29] (H-CQFDLSTRRAKC-OH; disulfide 1-12)
ΔΔG (cetuximab Fab): 0.63 kcal/mol

CC(C)C[C@@H]1NC(=O)[C@H](CCCNC(=N)N)NC(=O)[C@H](CCCNC(=N)N)NC(=O)[C@H]([C@@H](C)O)NC(=O)[C@H](CO)NC(=O)[C@H](CC(C)C)NC(=O)[C@H](CC(=O)O)NC(=O)[C@H](Cc2ccccc2)NC(=O)[C@H](CCC(N)=O)NC(=O)[C@@H](N)CSSC[C@@H](C(=O)O)NC(=O)[C@H](CCCCN)NC1=O [meditope]
off-rate, kd [5]: 0.01641 s⁻¹
on-rate, ka [5]: 13250 M⁻¹ s⁻¹

AcC-QFDLSTRRLR-CGGGSK [Meditope 31]
binding to meditope-enabled antibody [4]: confirming binding

C-QYDLSTRRLK-C (CQYDLSTRRLKC; disulfide 1-12) [Meditope 16, Y = tyrosine; Disulfide 1-Cys:12-Cys]
pH dependence of affinity (cetuximab [2]): marked decrease in affinity

MPL (L3): meditope SCQFDLSTRRLKC fused to Protein L moiety through linker GGGGS
meditope binding to antibody pre-bound cells (SKBR3 cells): tight binding affinity
off-rate, kd [5]: 6.441e-05 s⁻¹
on-rate, ka [5]: 383200 M⁻¹ s⁻¹

Q-FDLSTRRLK-X [Meditope 42, X = 7-aminoheptanoic acid; Lactam 1-Gln: 11-X]
affinity compared to cQFD (cetuximab [3]): decreased

SQFDLSTRRLKS [Meditope 55, No linkage; linear peptide]
affinity compared to cQFD (cetuximab [3]): reduced affinity

meditope-Fc: cQFD fused to the N-terminus of an IgG Fc region through a 17 amino acid glycine/serine linker
enhancement of cell-killing capacity of cetuximab (MDA-MB-468 cells [1]; 0.1 μM cetuximab with 0.2, 0.4 or 0.8 μM agent, 48 hours): enhanced the cell-killing capacity of cetuximab to a similar degree
cell growth (MDA-MB-468 cells [1]): inhibited cell growth
meditope binding to antibody pre-bound cells (SKBR3 cells): binds to the meditope-enabled trastuzumab, but not to wild-type trastuzumab
binding to cells pre-treated with cetuximab (MDA-MB-468 cells [6]): higher affinity compared to the meditope monomer; also recorded: bound to the cells incubated with cetuximab, but not to cells incubated with M425

B1: MPL F3A R8A (L3): MPL mutant weakening the affinity of the meditope portion, linker L3 (protein)
chain: SCQADLSTARLKCGGGGSEVTIKVNLIFADGKIQTAEFKGTFEEATAEAYRYAALLAKVNGEYTADLEDGGNHMNIKFAG
off-rate, kd [5]: 0.02239 s⁻¹
on-rate, ka [5]: 81350 M⁻¹ s⁻¹
Kd ([5]; read-out: Dissociation constant, KD): 275 nM
